Each compound was assayed against T1, Human MTHFD2 (Homo sapiens, UniProt P13995) (assay: MTHFD2 Activity Assay (dehydrogenase activity, diaphorase/resazurin coupled fluorescence)). Conditions: inhibitory activity (IC50 and/or binding constant); 0.2 nM MTHFD2, 11 concentrations.
T1 construct: residues 36-350 in Uniport ID P13995; His6 (N); made in house; host or cells: E. coli
T1 sequence (P13995 36-350): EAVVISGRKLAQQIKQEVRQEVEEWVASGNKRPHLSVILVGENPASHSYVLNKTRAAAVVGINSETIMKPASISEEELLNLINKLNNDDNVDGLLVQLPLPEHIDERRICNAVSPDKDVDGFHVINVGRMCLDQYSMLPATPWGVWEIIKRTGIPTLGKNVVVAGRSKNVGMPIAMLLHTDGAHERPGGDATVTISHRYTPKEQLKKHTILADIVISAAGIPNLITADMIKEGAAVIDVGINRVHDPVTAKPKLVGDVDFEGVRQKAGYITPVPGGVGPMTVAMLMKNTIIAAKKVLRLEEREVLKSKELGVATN
Format: biochemical
Outline: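 Resorufin fluorescence (ex 525, em 598 nm) reports NADH formed by the dehydrogenase via diaphorase coupling. Enzyme (0.2 nM, residues 36-350, N-His6) sat with compound 15 min before 70 μM CH2-THF and 1 mM NAD+ started a 30 min reaction. IC50s come from 4-parameter fits over 11 concentrations.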

Row | SMILES | IC50 [nM]
1 | Cn1c(NS(C)(=O)=O)nc2c1c(=O)n(Cc1cc3c(Cl)cccc3[nH]1)c(=O)n2C [Example 336, N-[1-[(4-chloro-1H-indol-2-yl)methyl]-3,7-dimethyl-2,6-dioxo-purin-8-yl]methanesulfonamide] | 10 to 1000
2 | Cn1c(Nc2cccc(CC(=O)O)c2)nc2c1c(=O)n(Cc1cc3c(Cl)cccc3[nH]1)c(=O)n2C [Example 339, 2-(3-((1-((4-chloro-1H-indol-2-yl)methyl)-3,7-dimethyl-2,6-dioxo-2,3,6,7-tetrahydro-1H-purin-8-yl)amino)phenyl)acetic acid] | 10 to 1000
3 | Cc1c(Cn2c(=O)c3c(nc(Nc4ccncc4)n3C)n(C)c2=O)[nH]c2ccccc12 [Example 340, 3,7-dimethyl-1-((3-methyl-1H-indol-2-yl)methyl)-8-(pyridin-4-ylamino)-1H-purine-2,6(3H,7H)-dione] | 10 to 1000
4 | Cn1c(=O)n(Cc2ccc(Cl)c(Cl)c2)c(=O)c2c1nc(NC1CCCC(C(=O)O)C1)n2CCC(=O)O (centres unmarked) [Example 341, 3-(7-(2-carboxyethyl)-1-(3,4-dichlorobenzyl)-3-methyl-2,6-dioxo-2,3,6,7-tetrahydro-1H-purin-8-ylamino)cyclohexanecarboxylic acid] | 5000 to 10000
5 | Cc1cccc2[nH]c(Cn3c(=O)c4c(nc(NC5CCCC(C(=O)O)C5)n4C)n(C)c3=O)cc12 (centres unmarked) [Example 342, 3-(3,7-dimethyl-1-((4-methyl-1H-indol-2-yl)methyl)-2,6-dioxo-2,3,6,7-tetrahydro-1H-purin-8-ylamino)cyclohexanecarboxylic acid] | 10 to 1000
6 | Cn1c(Nc2cccnc2)nc2c1c(=O)n(Cc1cc3c(Cl)cccc3[nH]1)c(=O)n2C [Example 343, 1-((4-chloro-1H-indol-2-yl)methyl)-3,7-dimethyl-8-(pyridin-3-ylamino)-1H-purine-2,6(3H,7H)-dione] | 10 to 1000
7 | Cn1c(Nc2ccnc(C3CC(O)C3)c2)nc2c1c(=O)n(Cc1ccc(Cl)c(Cl)c1)c(=O)n2C (centres unmarked) [Example 344, 1-(3,4-diclorobenzyl)-8-(2-(3-hydroxylcyclobutyl)pyridine-4-ylamino)-3,7-dimethyl-1-H-purine-2,6(3H,7H)-dione] | 1000 to 5000
8 | Cn1c(Nc2ccc(CC(=O)O)cc2)nc2c1c(=O)n(Cc1cc3c(Cl)cccc3[nH]1)c(=O)n2C [Example 345, 2-[4-[[1-[(4-chloro-1H-indol-2-yl)methyl]-3,7-dimethyl-2,6-dioxo-purin-8-yl]amino]phenyl]acetic acid] | 10 to 1000
9 | Cn1c(Nc2cccc(C(=O)O)c2)nc2c1c(=O)n(Cc1cc3c(Cl)cccc3[nH]1)c(=O)n2C [Example 346, 3-[[1-[(4-chloro-1H-indol-2-yl)methyl]-3,7-dimethyl-2,6-dioxo-purin-8-yl]amino]benzoic acid] | 10 to 1000
10 | Cn1c(N[C@H]2CCC[C@H]2O)nc2c1c(=O)n(Cc1cc3c(Cl)cccc3[nH]1)c(=O)n2C [Example 347, 1-((4-chloro-1H-indol-2-yl)methyl)-8-((1S,2R)-2-hydroxycyclopentylamino)-3,7-dimethyl-1H-purine-2,6(3H,7H)-dione] | 10 to 1000
11 | Cn1c(Nc2ccncc2)nc2c1c(=O)n(Cc1cc3c(Br)cccc3[nH]1)c(=O)n2C [Example 348, 1-((4-bromo-1H-indol-2-yl)methyl)-3,7-dimethyl-8-(pyridin-4-ylamino)-1H-purine-2, 6(3H,7H)-dione] | 5000 to 10000
12 | Cn1c(Nc2ccncc2)nc2c1c(=O)n(Cc1ccc3ccccc3c1)c(=O)n2C [Example 349, 3,7-dimethyl-1-(naphthalen-2-ylmethyl)-8-(pyridin-4-ylamino)-1H-purine-2,6(3H,7H)-dione] | 10 to 1000
13 | Cn1c(Nc2ccncc2)nc2c1c(=O)n(Cc1cc3c(C#N)cccc3[nH]1)c(=O)n2C [Example 350, 2-((3,7-dimethyl-2,6-dioxo-8-(pyridin-4-ylamino)-2,3,6,7-tetrahydro-1H-purin-1-yl)methyl)-1H-indole-4-carbonitrile] | 5000 to 10000
14 | Cn1c(Nc2cccc(C3CCC(O)C3)n2)nc2c1c(=O)n(Cc1cc3c(Cl)cccc3[nH]1)c(=O)n2C (centres unmarked) [Example 351, 1-((4-chloro-1H-indol-2-yl)methyl)-8-(6-(3-hydroxycyclopentyl)pyridin-2-ylamino)-3,7-dimethyl-1H-purine 2,6(3H,7H)-dione] | 10 to 1000
15 | Cn1c(Nc2cccc(C3CC(O)C3)n2)nc2c1c(=O)n(Cc1ccc(Cl)c(Cl)c1)c(=O)n2C (centres unmarked) [Example 352, 1-(3,4-diclorobenzyl)-8-(6-(3-hydroxycyclobutyl)pyridine-2-ylamino)-3,7-dimethyl-1H-purine-2,6(3H,7H)-dione] | 1000 to 5000
16 | Cn1c(-n2c(N)nc3ccccc32)nc2c1c(=O)n(Cc1cc3c(Cl)cccc3[nH]1)c(=O)n2C [Example 353, 8-(2-amino-1H-benzo[d]imidazol-1-yl)-1-((4-chloro-1H-indol-2-yl)methyl)-3,7-dimethyl-1H-purine-2,6(3H,7H)-dione] | 1000 to 5000

Row | SMILES | IC50 [nM]
17 | Cn1c(Nc2cnccn2)nc2c1c(=O)n(Cc1cc3c(Cl)cccc3[nH]1)c(=O)n2C [Example 354, 1-((4-chloro-1H-indol-2-yl)methyl)-3,7-dimethyl-8-(pyrazin-2-ylamino)-1H-purine-2,6(3H,7H)-dione] | 10 to 1000
18 | Cn1c(Nc2ccnc(CCC(=O)O)n2)nc2c1c(=O)n(Cc1cc3c(Cl)cccc3[nH]1)c(=O)n2C [Example 355, 3-(4-(1-((4-chloro-1H-indol-2-yl)methyl)-3,7-dimethyl-2,6-dioxo-2,3,6,7-tetrahydro-1H-purin-8-ylamino)pyrimidin-2-yl)propanoic acid] | 10 to 1000
19 | Cn1c(Nc2ncc[nH]2)nc2c1c(=O)n(Cc1cc3c(Cl)cccc3[nH]1)c(=O)n2C [Example 356, 1-[(4-chloro-1H-indol-2-yl)methyl]-8-(1H-imidazol-2-ylamino)-3,7-dimethyl-purine-2,6-dione] | 10 to 1000
20 | Cn1c(CN)nc2c1c(=O)n(Cc1cc3c(Cl)cccc3[nH]1)c(=O)n2C [Example 358, 8-(aminomethyl)-1-[(4-chloro-1H-indol-2-yl)methyl]-3,7-dimethyl-purine-2,6-dione] | 10 to 1000
21 | Cn1c(N[C@@H]2CCC[C@@H]2O)nc2c1c(=O)n(Cc1cc3c(Cl)cccc3[nH]1)c(=O)n2C [Example 359] | 10 to 1000
22 | Cn1c(NCC(N)=O)nc2c1c(=O)n(Cc1cc3c(Cl)cccc3[nH]1)c(=O)n2C [Example 360, 2-(1-((4-chloro-1H-indol-2-yl)methyl)-3,7-dimethyl-2,6-dioxo-2,3,6,7-tetrahydro-1H-purin-8-ylamino)acetamide] | 10 to 1000
23 | CCn1c(=O)n(Cc2cc3c(Cl)cccc3[nH]2)c(=O)c2c1nc(Nc1ccncc1)n2C [Example 361, 1-((4-chloro-1H-indol-2-yl)methyl)-3-ethyl-7-methyl-8-(pyridin-4-ylamino)-1H-purine-2,6(3H,7H)-dione] | 10 to 1000
24 | Cn1c(Nc2ccncn2)nc2c1c(=O)n(Cc1cc3c(Cl)cccc3[nH]1)c(=O)n2C [Example 362, 1-((4-chloro-1H-indol-2-yl)methyl)-3,7-dimethyl-8-(pyrimidin-4-ylamino)-3,7-dihydro-1H-purine-2,6-dione] | 10 to 1000
25 | Cc1cccc2cc(Cn3c(=O)c4c(nc(Nc5ccncc5)n4C)n(C)c3=O)[nH]c12 [Example 365, 3,7-dimethyl-1-[(7-methyl-1H-indol-2-yl)methyl]-8-(4-pyridylamino)purine-2,6-dione] | 10 to 1000
26 | Cn1c(Nc2ccncc2)nc2c1c(=O)n(Cc1cc3cccc(F)c3[nH]1)c(=O)n2C [Example 366, 1-[(7-fluoro-1H-indol-2-yl)methyl]-3,7-dimethyl-8-(4-pyridylamino)purine-2,6-dione] | 10 to 1000
27 | Cn1c(Nc2ccc(S(C)(=O)=O)cc2)nc2c1c(=O)n(Cc1cc3c(Cl)cccc3[nH]1)c(=O)n2C [Example 367, 1-[(4-chloro-1H-indol-2-yl)methyl]-3,7-dimethyl-8-(4-methylsulfonylanilino)purine-2,6-dione] | 10 to 1000
28 | Cn1c(=O)n(Cc2ccc(Cl)c(Cl)c2)c(=O)c2c1nc(NC1CCCC(C(=O)O)C1)n2CCN (centres unmarked) [Example 369, 3-(7-(2-aminoethyl)-1-(3,4-dichlorobenzyl)-3-methyl-2,6-dioxo-2,3,6,7-tetrahydro-1H-purin-8-ylamino)cyclohexanecarboxylic acid] | 10 to 1000
29 | COc1cccc2[nH]c(Cn3c(=O)c4c(nc(Nc5ccncc5)n4C)n(C)c3=O)cc12 [Example 370, 1-((4-methoxy-1H-indol-2-yl)methyl)-3,7-dimethyl-8-(pyridin-4-ylamino)-1H-purine-2,6(3H,7H)-dione] | 10 to 1000
30 | Cn1c(N2CCCC(N)C2)nc2c1c(=O)n(Cc1cc3c(Cl)cccc3[nH]1)c(=O)n2C (centres unmarked) [Example 371, 8-(3-aminopiperidin-1-yl)-1-((4-chloro-1H-indol-2-yl)methyl)-3,7-dimethyl-1H-purine-2,6(3H,7H)-dione] | 10 to 1000
31 | Cn1c(Nc2ccncc2)nc2c1c(=O)n(Cc1cc3cccc(Cl)c3[nH]1)c(=O)n2C [Example 373, 1-[(7-chloro-1H-indol-2-yl)methyl]-3,7-dimethyl-8-(4-pyridylamino)purine-2,6-dione] | 10 to 1000
32 | Cn1c(Nc2ccncc2)nc2c1c(=O)n(Cc1cc3c(-c4ccccc4)cccc3[nH]1)c(=O)n2C [Example 374, 3,7-dimethyl-1-((4-phenyl-1H-indol-2-yl)methyl)-8-(pyridin-4-ylamino)-1H-purine-2,6(3H,7H)-dione] | > 10000

Source: patent publication US12187728B2 (Raze Therapeutics, Inc., priority 2015, dated 2025)
